Results on two compounds are retold here after patent publication US10596259B2, “Tumor radiosensitization with monomethyl auristatin E (MMAE) and derivatives thereof” (The Regents of the University of California, priority 2015, dated 2020).

pIC50: −log10 of the molar value. Where two headings read alike, the source gives them in different places.

Holding throughout (assay): Alamar Blue cell viability assay
Format in all cases: cell-based, Human

Assay [1] concerns CAL-27 cells. Particulars: 72 hours. On the procedure:
(§1) Alamar Blue (resazurin) was added to the cells and allowed to incubate for 2 hrs at 37° C. Plates were analyzed using a plate reader with fluorescence measured at 560 nm.

Assay [2] relates to SCC-35 cells. The conditions noted are these: 72 hours. How it is done: as §1
Assay [3] relates to SQ-9G cells. The conditions noted are these: 72 hours. On the procedure: as §1
Assay [4] relates to SCC-61 cells. The conditions noted are these: 72 hours. How it is done: as §1
The test system of assay [5] is PANC-1 cells. Particulars: Homo sapiens, PANC-1, 72 h, read-out: IC50. On the procedure: (§2) Cells were plated in 96 well plates at varying cell densities and exposed to range of concentrations of MMAE or paclitaxel for 72 hrs. Alamar Blue (also known as resazurin) was added to the cells and allowed to incubate for 2 hrs at 37° C. Plates were analyzed using a plate reader with fluorescence measured at 560 nm. For irradiated cells, cells were treated with MMAE overnight followed by 6 Gy.
(§3) Cells were plated in 96-well plates and exposed to MMAE or paclitaxel for 72 hours and analyzed at 560 nm. For irradiated cells, cells were treated with MMAE overnight followed by 6 Gy.

For assay [6], the system named is 779E cells. The conditions noted are these: Homo sapiens, 72 h. How it is done: as §2, §3
In assay [7] the test system is HCT-116 cells. The conditions noted are these: Homo sapiens, HCT-116, 72 h, read-out: IC50. On the procedure:
Alamar Blue (also known as resazurin) was added to the cells and allowed to incubate for 2 hrs at 37° C. Plates were analyzed using a plate reader with fluorescence measured at 560 nm. For irradiated cells, cells were treated with MMAE overnight followed by 6 Gy.
as §1, §3

As for `N.N.[Cl][Pt][Cl]` [cisplatin], the pIC50 was 5.30 in assay [1], 4.52 in assay [2], 4.89 in assay [3] and 5.00 in assay [4].

For `CC(=O)O[C@H]1C(=O)[C@@]2(C)[C@H]([C@H](OC(=O)c3ccccc3)[C@]3(O)C[C@H](OC(=O)[C@H](O)[C@@H](NC(=O)c4ccccc4)c4ccccc4)C(C)=C1C3(C)C)[C@]1(OC(C)=O)CO[C@@H]1C[C@@H]2O` [paclitaxel], the pIC50 is 7.82 in assay [5] (72 hours exposure (Example 3)); 7.82 in assay [5] (72 hours exposure); 7.28 in assay [6] (72 hours exposure); 7.28 in assay [6] (72 hours exposure (Example 3)); 8.00 in assay [7] (72 hours exposure (Example 3)); 8.00 in assay [7] (72 hours exposure).
